{"source": "patent US20260008817A1", "about": "“CYCLIC PEPTIDE OR SALT THEREOF, AND USES THEREOF” (FUJIFILM Corporation, priority 2023, published 2026)", "key": {"[1]": {"test_system": "hMSC-Human Mesenchymal Stem Cells", "assay": "Mesenchymal stem cell (MSC) proliferation-promoting effect", "assay_type": "cell-based", "conditions": "0.001 to 3 nmol/L, compared with bFGF at the same molar ratio; FIG. 3", "method": "The mesenchymal stem cell (MSC) proliferation-promoting effect of the cyclic peptide complex was evaluated.\nThe MSC was activated and subcultured according to the recommended protocol of FUJIFILM Irvine Scientific, Inc. using hMSC-Human Mesenchymal Stem Cells (Lonza, PT-2501) and PRIME-XV MSC Expansion XSFM (FUJIFILM Irvine Scientific, Inc., 91149) as a culture medium. MSCs that had been subcultured 1 to 4 times were used for the evaluation.\nThe evaluation of the proliferation-promoting effect of MSC was performed by the following method. First, a culture medium (hereinafter, referred to as a custom culture medium) in which bFGF was removed from PRIME-XV MSC Expansion XSFM (FUJIFILM Irvine Scientific, Inc., 91149) was prepared. Next, Prime-XV Human Fibronectin (FUJIFILM Irvine Scientific, Inc., 31002) was dissolved in PBS (Fujifilm Wako Pure Chemical Corporation, 164-23551), 2 μg/cm^2 of the solution was added to a 96-well plate used for evaluation, and the 96-well plate was allowed to stand at room temperature for 3 hours to coat the 96-well plate with fibronectin. […] The number of viable cells was calculated from the imaging data and normalized by setting the number of viable cells in the well to which 1 nmol/L bFGF was added to 100, and setting the number of viable cells in the negative control well to 0."}, "[2]": {"test_system": "hMSC-Human Mesenchymal Stem Cells", "assay": "Effect of maintaining MSC undifferentiated potency (gene expression)", "assay_type": "cell-based", "conditions": "cyclic peptide complex 10 nmol/L, bFGF 1 nmol/L, normalized to 1 nmol/L bFGF = 1, FIG. 4", "method": "The effect of maintaining mesenchymal stem cell (MSC) undifferentiated potency of the cyclic peptide complex was evaluated.\nMSC was prepared in the same manner as in Example 7.\nThe evaluation of the effect of maintaining the MSC undifferentiated potency was performed by the following method. First, a culture medium (hereinafter, referred to as a custom culture medium) in which bFGF was removed from PRIME-XV MSC Expansion XSFM (FUJIFILM Irvine Scientific, Inc., 91149) was prepared. Next, Prime-XV Human Fibronectin (FUJIFILM Irvine Scientific, Inc., 31002) was dissolved in PBS (Fujifilm Wako Pure Chemical Corporation, 164-23551), 2 μg/cm^2 of the solution was added to a 12-well plate used for proliferation, and the 12-well plate was allowed to stand at room temperature for 3 hours to coat the 12-well plate with fibronectin. Thereafter, the MSCs subjected to the subculture were peeled using Tryple Express (Thermo, 12604-013), washed once with a custom culture medium, suspended in a custom culture medium in which a cyclic peptide complex or bFGF (R&D Systems, 3718-GMP) was diluted to final concentrations of 10 nmol/L and 1 nmol/L, and seeded on a 12-well plate coated with fibronectin. In this case, conditions in which the cyclic peptide complex and bFGF were not added as a negative control were prepared. After culturing at 37° C. (5% CO2) for 2 nights, the culture medium was replaced by removing the supernatant of the culture medium and adding the same amount of a culture medium prepared to have the same composition as the removed culture medium. After further culturing at 37° C. (5% CO2) for 2 nights, RNA was extracted using an RNeasy Plus Mini Kit (Qiagen, 74136) according to the manufacturer's protocol. […] The expression level of each gene was normalized by setting the expression level of the well to which 1 nmol/L bFGF was added to 1."}, "[3]": {"test_system": "Bovine myoblasts", "assay": "Bovine myoblast proliferation-promoting effect", "assay_type": "cell-based, Japanese Black cattle", "conditions": "0.03 to 10 nmol/L complex versus 30 ng/mL bFGF, 4 days; FIG. 5", "method": "The bovine cells (myoblasts) proliferation-promoting effect of the cyclic peptide complex was evaluated.\nBovine myoblasts were separated from bovine muscle tissue by the following method. First, muscle tissue of Japanese Black cattle was finely chopped in HBSS(−) (phenol red-free) (FUJIFILM Wako Pure Chemical Corporation, 085-09355), and then pronase from Streptomyces griseus (Sigma-Aldrich, 10165921001) was added thereto to a final concentration of 1 mg/mL, and the mixture was allowed to stand at 37° C. for 1 hour. After allowing to stand, HBSS containing 10% FBS was added thereto, and the cells were acquired by centrifugation. The acquired cells were suspended in D-MEM (high glucose) (containing L-glutamine and phenol red) (FUJIFILM Wako Pure Chemical Corporation, 044-29765) containing 10% final concentration of bovine serum and 30 ng/mL bFGF. Suspended cells were cultured in a culture flask coated with an iMatrix-511 solution (FUJIFILM Wako Pure Chemical Corporation, 381-07363) at 0.55 μg/cm^2. […]\nThe evaluation of the proliferation-promoting effect on bovine myoblasts was performed by the following method. […] The number of viable cells was calculated from the imaging data and normalized by setting the number of viable cells in the well to which 30 ng/mL bFGF was added to 100, and setting the number of viable cells in the negative control well to 0."}}, "note": "Non-standard residues stand in square brackets, D forms with d. No end group written: not given here. hCys = N[C@@H](CCS)C(=O)O; Orn = NCCC[C@H](N)C(=O)O", "data": [{"substance": "F-(Orn(acetyl))-VYTFDAHAHSLDAALN-(Hcy)-I (F[Orn]VYTFDAHAHSLDAALN[hCys]IF[Orn]VYTFDAHAHSLDAALN[hCys]I-NH2; thioether (positions not given here); not fully specified (residues 2, 22, bridges); also: dimer of two 20-mers crosslinked via Bis-NHS-PEG13 between side-chain amino groups, C-terminal amide on each monomer) [SEQ ID NO: 346, cyclic peptide complex; C-terminal amidation, amide crosslinking between side chain amino groups of N via Bis-NHS-PEG13]", "values": [{"measurement": "MSC proliferation-promoting effect", "setting": "[1]", "value": "same degree of MSC proliferation-promoting effect as bFGF"}, {"measurement": "expression level of Sox2", "setting": "[2]", "value": "same degree of a gene expression level as bFGF"}, {"measurement": "proliferation-promoting effect on bovine myoblasts", "setting": "[3]", "value": "comparable to or higher than that of bFGF"}]}]}
